# Laboratory results from patent publication US8299048B2, “Hexahydrocyclopentyl[f]indazole sulfonamides and derivatives thereof as selective glucocorticoid receptor modulators” (Merck Sharp & Dohme Corp., priority 2008, dated 2012).
# Target: T1, glucocorticoid receptor (Homo sapiens, UniProt P04150)
# T1 construct: endogenous in cells
# T1 sequence (P04150 1-777): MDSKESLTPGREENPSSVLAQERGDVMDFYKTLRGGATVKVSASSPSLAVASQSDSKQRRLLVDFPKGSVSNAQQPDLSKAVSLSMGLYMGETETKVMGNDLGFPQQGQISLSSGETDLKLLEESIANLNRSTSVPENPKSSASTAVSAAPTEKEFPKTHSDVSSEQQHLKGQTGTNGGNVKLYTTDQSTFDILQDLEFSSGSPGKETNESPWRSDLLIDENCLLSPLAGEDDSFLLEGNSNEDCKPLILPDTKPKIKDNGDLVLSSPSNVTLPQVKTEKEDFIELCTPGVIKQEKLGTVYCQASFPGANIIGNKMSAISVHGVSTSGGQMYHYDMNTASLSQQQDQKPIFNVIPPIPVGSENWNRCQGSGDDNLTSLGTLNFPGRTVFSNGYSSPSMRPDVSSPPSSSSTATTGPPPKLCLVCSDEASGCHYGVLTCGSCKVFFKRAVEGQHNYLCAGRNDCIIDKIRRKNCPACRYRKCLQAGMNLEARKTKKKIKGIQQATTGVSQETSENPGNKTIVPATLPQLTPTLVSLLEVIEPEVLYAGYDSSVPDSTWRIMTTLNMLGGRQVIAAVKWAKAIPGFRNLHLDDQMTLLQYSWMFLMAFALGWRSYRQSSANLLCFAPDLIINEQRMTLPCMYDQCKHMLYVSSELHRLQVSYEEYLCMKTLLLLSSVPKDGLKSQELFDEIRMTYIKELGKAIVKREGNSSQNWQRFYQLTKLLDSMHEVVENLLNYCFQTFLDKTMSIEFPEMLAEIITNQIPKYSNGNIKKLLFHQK
# Experiment: Ligand binding assay (GR BIND)
# In short: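 Cytosol from freeze–thawed cells in TEGM (pH 7.2, 10 mM molybdate) was incubated overnight at 4 °C with compound and [3H]-dexamethasone trace (added as 6 nM solution), 2% EtOH final. Bound ligand was captured on hydroxylapatite, filtered, washed and scintillation counted. Values were calculated with dexamethasone as reference.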
row,Ki [nM],Compound
1,0.8,"C[C@]12Cc3cnn(-c4ccc(F)cc4)c3C=C1CC[C@@H]2CN(CC(O)C(F)F)S(=O)(=O)CC(F)(F)F (stereo partly drawn) [Example 133, N-(3,3-difluoro-2-hydroxypropyl)-2,2,2-trifluoro-N-{[(4αR,5S)-1-(4-fluorophenyl)-4α-methyl-1,4,4α,5,6,7-hexahydrocyclopenta[f]indazol-5-yl]methyl}ethanesulfonamide]"
2,5.5,"C[C@]12Cc3cnn(-c4ccc(F)cc4)c3C=C1CC[C@@H]2CN(Cc1cccnn1)S(=O)(=O)CC(F)(F)F [Example 132, 2,2,2-trifluoro-N-{[(4αR,5S)-1-(4-fluorophenyl)-4α-methyl-1,4,4α,5,6,7-hexahydrocyclopenta[f]indazol-5-yl]methyl}-N-(pyridazin-3-ylmethyl)ethanesulfonamide]"
3,1.8,"C[C@]12Cc3cnn(-c4ccc(F)cc4)c3C=C1CC[C@@H]2CN(CC(O)C(F)(F)F)S(=O)(=O)Cc1cccnc1 (stereo partly drawn) [Example 149, N-{[(4αR,5S)-1-(4-fluorophenyl)-4α-methyl-1,4,4α,5,6,7-hexahydrocyclopenta[f]indazol-5-yl]methyl}-1-pyridin-3-yl-N-(3,3,3-trifluoro-2-hydroxypropyl)methanesulfonamide]"
4,1.7,"C[C@]12Cc3cnn(-c4ccc(F)cc4)c3C=C1CC[C@@H]2CN(CCc1ccccc1CO)S(=O)(=O)CC(F)(F)F [Example 163, 2,2,2-trifluoro-N-{[(4αR,5S)-1-(4-fluorophenyl)-4α-methyl-1,4,4α,5,6,7-hexahydrocyclopenta[f]indazol-5-yl]methyl}-N-{2-[2-(hydroxymethyl)phenyl]ethyl}ethanesulfonamide]"
5,1.6,"CCCS(=O)(=O)N(CC(O)C(F)(F)F)C[C@H]1CCC2=Cc3c(cnn3-c3ccc(F)cc3)C[C@@]21C (stereo partly drawn) [Example 148, N-{[(4αR,5S)-1-(4-fluorophenyl)-4α-methyl-1,4,4α,5,6,7-hexahydrocyclopenta[f]indazol-5-yl]methyl}-N-(3,3,3-trifluoro-2-hydroxypropyl)propane-1-sulfonamide]"
6,1.9,"COC(=O)c1ccccc1CCN(C[C@H]1CCC2=Cc3c(cnn3-c3ccc(F)cc3)C[C@@]21C)S(=O)(=O)CC(F)(F)F [Example 159, methyl 2-(2-{{[(4αR,5S)-1-(4-fluorophenyl)-4α-methyl-1,4,4α,5,6,7-hexahydrocyclopenta[f]indazol-5-yl]methyl}[(2,2,2-trifluoroethyl)sulfonyl]amino}ethyl)benzoate]"
7,2.2,C[C@H](O)CN(C[C@H]1CCC2=Cc3c(cnn3-c3ccc(F)cc3)C[C@@]21C)S(=O)(=O)CC(F)(F)F [Example 113]
8,2.5,"C[C@]12Cc3cnn(-c4ccc(F)cc4)c3C=C1CC[C@@H]2CN(CC1(OS(=O)(=O)CC(F)(F)F)CC1)S(=O)(=O)CC(F)(F)F [Example 136, 1-({{[(4αR,5S)-1-(4-fluorophenyl)-4α-methyl-1,4,4α,5,6,7-hexahydrocyclopenta[f]indazol-5-yl]methyl}[(2,2,2-trifluoroethyl)sulfonyl]amino}methyl)cyclopropyl 2,2,2-trifluoroethanesulfonate]"
9,0.8,"C[C@]12Cc3cnn(-c4ccc(F)cc4)c3C=C1CC[C@@H]2CN(CCc1ccccn1)S(=O)(=O)CC(F)(F)F [Example 128, 2,2,2-trifluoro-N-{[(4αR,5S)-1-(4-fluorophenyl)-4α-methyl-1,4,4α,5,6,7-hexahydrocyclopenta[f]indazol-5-yl]methyl}-N-(2-pyridin-2-ylethyl)ethanesulfonamide]"
10,2.9,"C[C@]12Cc3cnn(-c4ccc(F)cc4)c3C=C1CC[C@@H]2CN(CC1(O)CC1)S(=O)(=O)CC(F)(F)F [Example 135, 2,2,2-trifluoro-N-{[(4αR,5S)-1-(4-fluorophenyl)-4α-methyl-1,4,4α,5,6,7-hexahydrocyclopenta[f]indazol-5-yl]methyl}-N-[(1-hydroxycyclopropyl)methyl]ethanesulfonamide]"
11,1.3,"C[C@]12Cc3cnn(-c4ccc(F)cc4)c3C=C1CC[C@@H]2CN(CC(O)C(F)F)S(=O)(=O)Cc1cccnc1 (stereo partly drawn) [Example 154, N-(3,3-difluoro-2-hydroxypropyl)-N-{[(4αR,5S)-1-(4-fluorophenyl)-4α-methyl-1,4,4α,5,6,7-hexahydrocyclopenta[f]indazol-5-yl]methyl}-1-pyridin-3-ylmethanesulfonamide]"
12,13.3,"C[C@]12Cc3cnn(-c4ccc(F)cc4)c3C=C1CC[C@@H]2CN(CC(O)c1cccnc1)S(=O)(=O)CC(F)(F)F (stereo partly drawn) [Example 143, 2,2,2-trifluoro-N-{[(4αR,5S)-1-(4-fluorophenyl)-4α-methyl-1,4,4α,5,6,7-hexahydrocyclopenta[f]indazol-5-yl]methyl}-N-(2-hydroxy-2-pyridin-3-ylethyl)ethanesulfonamide]"

# More lines, now with the values behind:
row,Compound,Ki [nM]
1,"C[C@]12Cc3cnn(-c4ccc(F)cc4)c3C=C1CC[C@@H]2CN(CCc1ccccc1F)S(=O)(=O)c1ccccc1C(F)(F)F [Example 99, N-[2-(2-fluorophenyl)ethyl]-N-{[(4αR,5S)-1-(4-fluorophenyl)-4α-methyl-1,4,4α,5,6,7-hexahydrocyclopenta[f]indazol-5-yl]methyl}-2-(trifluoromethyl)benzenesulfonamide]",1.4
2,"Cn1cc(S(=O)(=O)N(CCc2ccccn2)C[C@H]2CCC3=Cc4c(cnn4-c4ccc(F)cc4)C[C@@]32C)c(C(F)(F)F)n1 [Example 150, N-{[(4αR,5S)-1-(4-fluorophenyl)-4α-methyl-1,4,4α,5,6,7-hexahydrocyclopenta[f]indazol-5-yl]methyl}-1-methyl-N-(2-pyridin-2-ylethyl)-3-(trifluoromethyl)-1H-pyrazole-4-sulfonamide]",1.5
3,"C[C@]12Cc3cnn(-c4ccc(F)cc4)c3C=C1CC[C@@H]2CN(CCc1ccccc1F)S(=O)(=O)Cc1ccccc1Cl [Example 107, 1-(2-chlorophenyl)-N-[2-(2-fluorophenyl)ethyl]-N-{[(4αR,5S)-1-(4-fluorophenyl)-4α-methyl-1,4,4α,5,6,7-hexahydrocyclopenta[f]indazol-5-yl]methyl}methanesulfonamide]",1.8
4,"COc1ccccc1CCN(C[C@H]1CCC2=Cc3c(cnn3-c3ccc(F)cc3)C[C@@]21C)S(=O)(=O)Cc1cccc(C(F)(F)F)c1 [Example 119, N-{[(4αR,5S)-1-(4-fluorophenyl)-4α-methyl-1,4,4α,5,6,7-hexahydrocyclopenta[f]indazol-5-yl]methyl}-N-[2-(2-methoxyphenyl)ethyl]-1-[3-(trifluoromethyl)phenyl]methanesulfonamide]",2.3
5,"CCCS(=O)(=O)N(CCc1ccccn1)C[C@H]1CCC2=Cc3c(cnn3-c3ccc(F)cc3)C[C@@]21C [Example 151, N-{[(4αR,5S)-1-(4-fluorophenyl)-4α-methyl-1,4,4α,5,6,7-hexahydrocyclopenta[f]indazol-5-yl]methyl}-N-(2-pyridin-2-ylethyl)propane-1-sulfonamide]",1.3
6,"C[C@]12Cc3cnn(-c4ccc(F)cc4)c3C=C1CC[C@@H]2CN(CCc1ccccc1F)S(=O)(=O)Cc1ccc(Cl)cc1Cl [Example 105, 1-(2,4-dichlorophenyl)-N-[2-(2-fluorophenyl)ethyl]-N-{[(4αR,5S)-1-(4-fluorophenyl)-4α-methyl-1,4,4α,5,6,7-hexahydrocyclopenta[f]indazol-5-yl]methyl}methanesulfonamide]",1.7
7,"C[C@]12Cc3cnn(-c4ccc(F)cc4)c3C=C1CC[C@@H]2CN(CCc1ccccc1F)S(=O)(=O)Cc1cccnc1 [Example 124, N-[2-(2-fluorophenyl)ethyl]-N-{[(4αR,5S)-1-(4-fluorophenyl)-4α-methyl-1,4,4α,5,6,7-hexahydrocyclopenta[f]indazol-5-yl]methyl}-1-pyridin-3-ylmethanesulfonamide]",0.7
8,"CC(=O)Nc1ccc(S(=O)(=O)N(CC2CC2)C[C@H]2CCC3=Cc4c(cnn4-c4ccc(F)cc4)C[C@@]32C)cc1 [Example 6, N-{4-[((cyclopropylmethyl){[(4αR,5S)-1-(4-fluorophenyl)-4α-methyl-1,4,4α,5,6,7-hexahydrocyclopenta[f]indazol-5-yl]methyl}amino)sulfonyl]phenyl}acetamide]",0.9
9,"COC(=O)c1ccccc1CS(=O)(=O)N(CC(O)C(F)(F)F)C[C@H]1CCC2=Cc3c(cnn3-c3ccc(F)cc3)C[C@@]21C (stereo partly drawn) [Example 162, methyl 2-({[{[(4αR,5S)-1-(4-fluorophenyl)-4α-methyl-1,4,4α,5,6,7-hexahydrocyclopenta[f]indazol-5-yl]methyl}(3,3,3-trifluoro-2-hydroxypropyl)amino]sulfonyl}methyl)benzoate]",0.5
10,"CC(C)CS(=O)(=O)N(CCc1ccccc1F)C[C@H]1CCC2=Cc3c(cnn3-c3ccc(F)cc3)C[C@@]21C [Example 103, N-[2-(2-fluorophenyl)ethyl]-N-{[(4αR,5S)-1-(4-fluorophenyl)-4α-methyl-1,4,4α,5,6,7-hexahydrocyclopenta[f]indazol-5-yl]methyl}-2-methylpropane-1-sulfonamide]",1.7
